From US20230160890A1, “COMPOSITIONS AND METHODS FOR DIAGNOSING NARCOLEPSY” (The Board of Trustees of the Leland Stanford Junior …, priority 2018, published 2023)
“Also recorded” adds a separate entry of the source. Ends that are not written are not given here. * marks the point of attachment. Biotin = O=C1N[C@H]2[C@H](CS[C@H]2CCCCC(=O)*)N1

Experiments:
[1] = tested on: TCR27 transfectants of J76-NFATRE-luc cells; experiment: T cell activation assay using a luciferase reporter, TCR27 transfectants with K562-DQ6 APCs; assay type: cell-based, human; parameters: dose or concentration left out as unconfirmed; settings: DQ6-restricted presentation by K562-DQ6, 1 day
From the text: To encode the entire α/β chains of a candidate TCR, the nucleotide sequences for CDR3a and CDR3P were incorporated in frame with the corresponding V(D)J genes (IMGT/V-QUEST^37). TCRα/β genes were then synthesized and cloned into a plasmid pEF1α-TCRA_2A_TCRB_IRES-AcGFP1 (by GenScript). Each reconstructed plasmid uses a mammalian promoter, EF1a to direct co-expression of α and β chains of one candidate TCR. TCRA and TCRB are separated by the 2A self-cleaving peptide sequence. For selection purposes, the plasmid also encodes the green fluorescence protein (GFP) and neomycin resistance gene, with expression driven by separate promoters. TCR-encoding plasmids were then transfected into the TCRα/β deficient Jurkat cell line (J76-NFATRE-luc)^20 by nucleofection following the Amaxa Optimized protocol (Lonza). Transfectants were selected by G418 at a concentration of 1 mg/ml and recovered after 3-4 weeks of culturing in the RPMI medium supplemented with 10% HI FBS, 2 mM glutamine, and 1% PS. To avoid the heterogeneity in TCR expression observed in a polyclonal cell line, TCRαβ^+/GFP^+/CD3^+ cell transfectants were individually sorted by single cell FACS, to expand clonal cell lines originating from single cell transfectants. These clonal lines were then co-stained with PE anti-TCRα/β Abs (BD Biosciences) and APC DQ6-HCRT tetramers to confirm the expression of TCRs and validate their binding to tetramers using flow cytometric analysis.
The TCR transfectants of J76-NFATRE-luc cells expresses the NFAT-RE (response element)-luciferase reporter gene allowing the conversion of T cell activation signaling to luciferase activity^20. […] The co-culture was incubated with various stimuli at 37° C. for 1 day before quantification of the luciferase activity. […] The mixture was then transferred to a flat-bottom white 96-well plate (Costar) for a measurement of chemiluminescence using a plate reader.

[2] = tested on: CD4+ T cells from T1N donors; experiment: In vitro culturing of CD4+ T cells with peptide-loaded T2DQ6 APCs, then tetramer staining; assay type: cell-based, human; settings: for Frequencies of tetramer+ cells after in vitro stimulation with the corresponding peptide: stained with the tetramer of the corresponding peptide
From the text: To test for the presence of DQ6-HCRTpeptide tetramer^+/CD4^+ T cells, a peptide-loaded antigen presenting cell (APC) line T2DQ6 (fixed to limit APC proliferation) was co-cultured with T cells for DQ6-restricted antigen stimulation. T2DQ6 was constructed by stable transfection of DQ6 (DQA1*01:02/DQB1*06:02) into T2, a class II deficient TxB hybrid cell^44. T2DQ6 cells were maintained in IMDM, GlutaMAX supplemented media (Thermo Fisher Scientific) with 10% HI FBS, 1% penicillin/streptomycin (P/S) and 1 mg/ml G418 (to maintain selective pressure on DQ6 transfectants). To load antigen, T2DQ6 cells were pulsed with peptides (i.e., EBV486-500, HCRT56-69, HCRT87-100, synthesized by Genscript) at 1 μM final concentration and incubated for 6 hours at 37° C. After peptide loading, 10 million T2DQ6 cells were washed with phosphate buffered saline (PBS) and then fixed by incubating with 0.025% glutaraldehyde in 2 ml PBS at RT for 30 seconds. After the addition of another 2 ml PBS, the cells were incubated for another 10 minutes at RT. Fixed T2DQ6 was washed twice with PBS and once with complete RPMI (RPMI 1640 medium supplemented with 10% HI human AB serum, 2 mM glutamine and 1% PS) before mixing with CD4^+ T cells. Human PBMCs frozen in NUNC tubes were thawed quickly at 37° C. and added slowly to 10 ml warm complete RPMI. PBMCs were pelleted and resuspended in cold buffer for CD4^+ T cell isolation. Cells were isolated from the PBMCs by negative selection, using the CD4^+ cell isolation kit, according to the manufacturer's instructions (Miltenyi Biotec). Isolated CD4^+ T cells were resuspended at 1×10^6 cells/ml in warm complete RPMI and rested for at least 1 hour before mixing with fixed T2DQ6 cells that were also resuspended at 1×10^6 cells/ml in warm complete RPMI. A mixture of 1:1 volume ratio of CD4^+ T cells and T2DQ6 cells in the presence of recombinant human IL-7 at final concentration of 2.5 ng/ml was aliquoted onto a 96-well plate and incubated at 37° C. for 6 days. On day 6 and day 9, 100 μl of the spent medium was removed from each well and replaced with fresh complete RPMI containing recombinant IL-7 at 2.5 ng/ml and IL-2 at 40 U/ml final concentrations. On day 12, a second round of antigen stimulation was performed similarly, using fixed T2DQ6 cells loaded with the corresponding peptides.
Sufficient cells from the co-culture were collected, washed with complete RPMI, and resuspended in 5 ml complete RPMI at RT prior to Ficoll gradient separation. Cells above the Ficoll media were washed and resuspended at 10×10^6 cells/ml in complete RPMI for blocking. […]

[3] = target: T1, soluble DQ6 (DQA1*01:02/DQB1*06:02) (Homo sapiens, UniProt P01909+P01920, A157G/A45G/C70R/E118A/E183D/E77G/F83G/G63E/H151Q/H199R/H252R/H253Q/I129T/I235V/I88M/INS77G/K197Q/L117V/L119F/L178F/L71W/L74F/L85Q/L91A/L98M/N214S/P87R/Q116E/Q76K/R102G/R240Q/R75S/R78G/S102Y/S185I/S41F/S97I/T121G/T122I/T172A/T86R/V229M/V68A/V73E/Y34C/Y41F/Y58L); experiment: Peptide competition assay (inhibition of DQ6 binding of biotinylated EBV486-500)
T1 construct: 3C protease cleavage site (C); leucine zipper-Fos (C); cut by thrombin before the assay (N, cleaved yes); leucine zipper-Jun (C); made in house; host or cells: Drosophila Schneider 2 (S2) insect cells
From the text: The ability of a peptide to inhibit the interaction of DQ6 and a reference binding peptide at steady state was used to estimate the relative DQ6 binding capacity of test peptides. We used biotinylated EBV486-500 (aa: biotin-[…] (SEQ ID NO:45), synthesized by Genscript), a DQ6-binding peptide (epitope underlined) derived from Epstein-Barr virus nuclear antigen^25, as our reference peptide. Non-biotinylated test peptides included thirty 15-mer overlapping peptides derived from prepo-HCRT (Table 1, by Genscript) and the positive control peptide EBV486-500. The DQ6-CLIP87-101 construct contains a thrombin cleavage site in between CLIP87-101 and […]. To cleave the covalent linker and enable replacement of CLIP87-101 by high affinity DQ6 binders, soluble DQ6-CLIP87-101 at a concentration of 3 μM was incubated with 0.002 U/μl thrombin enzyme (Novagen, EMD Millipore) for 2 h at room temperature (RT) prior to peptide loading experiments. To test DQ6 binding capacity, a non-biotinylated peptide at 40 μM was mixed with 1 μM biotinylated EBV486-500 and incubated with 25 nM thrombin-cleaved DQ6-CLIP87-101. 100 nM soluble DM was added as a catalyst to increase the peptide exchange efficiency^44. […] Time resolved fluorescence representing DQ6-associated biotinylated EBV486-500 captured by SPV-L3 in each well was then quantified using the DELFIA Eu-N1 Streptavidin System (PerkinElmer).

[4] = target: T2, prepro-HCRT (hypocretin precursor) peptide on HLA-DQA1*01:02 / HLA-DQB1*06:02 (human); experiment: activation reporter or marker
T2 peptide: ALLSSGAAAQPLP

[5] = target: T3, prepro-HCRT (hypocretin precursor; C-terminus of HCRT2) peptide on HLA-DQA1*01:02 / HLA-DQB1*06:02 (human); experiment: multimer staining
T3 peptide: SGNHAAGILTMGRR

[6] = target: T4, prepro-HCRT (hypocretin precursor) peptide on HLA-DQA1*01:02 / HLA-DQB1*06:02 (human); experiment: multimer staining
T4 peptide: MNLPSTKVSWAAV

[7] = target: soluble HLA-DQ6 (DQA1*01:02/DQB1*06:02), thrombin-cleaved DQ6-CLIP87-101 (human); experiment: competition: 40 µM test peptide against 1 µM biotinylated EBV486-500 on 25 nM soluble DQ6 with 100 nM HLA-DM, SPV-L3 capture, DELFIA

## MNLPSTKVSWAAV [HCRT1-13]
[1]
  TCR-mediated signaling (luciferase activity): failure of TCR27-mediated signaling

## SGNHAAGILTM-NH2 [HCRT87-97-NH2]
[1]
  TCR-mediated signaling (luciferase activity): significant signaling response; also recorded: triggered stronger signaling

## EBV486-500: a DQ6-binding peptide derived from Epstein-Barr virus nuclear antigen, reference and positive control peptide (Biotin-GGGRALLARSHVERTTDE) [reference compound]
[2]
  Frequencies of tetramer+ cells after in vitro stimulation with the corresponding peptide: time dependent enrichment

## MNLPSTKVSWAAVTL [HCRT1-15]
[3]; test peptide 40 μM, 1 μM biotinylated EBV486-500, 25 nM DQ6, 100 nM DM, pH 4.6, 37° C., 20 hours
  % Competition (inhibition of the indicator EBV peptide binding to DQ6): > 75%

## ALLSSGAAAQPLPDC [HCRT25-39]
[3]; competition assay, FIG. 2A
  DQ6 binder class: strong binder

## AGNHAAGILTLGKR [HCRT56-69]
[2]
  Frequencies of tetramer+ cells after in vitro stimulation with the corresponding peptide: significantly increased

## SGNHAAGILTMGRR [HCRT87-100]
[2]; stained with the DQ6-HCRT56-69 tetramer, some T1N donors
  Enrichment of DQ6-HCRT56-69 tetramer+ cells in peptide-stimulated culture: enrichment
[2]
  Frequencies of tetramer+ cells after in vitro stimulation with the corresponding peptide: significantly increased
[1]
  TCR-mediated signaling (luciferase activity): able to trigger TCR-mediated activation signaling

B1: TCR26 (TCR)
alpha TRAV9-2 TRAJ5 CDR3: CALSGKDTGRRALTF
beta TRBV25-1 TRBJ2-1 CDR3: CASSASPNEQFF
[4]
  binding result: no recognition

B2: T1N-irrelevant TCR isolated from a CD8+ T cell (TCR)
alpha TRAV25 TRAJ42 CDR3: CAGTYGGSQGNLIF
beta TRBV19 TRBJ2-2 CDR3: CASSLRSTGELFF
[5]
  binding result: no recognition
[6]
  binding result: no recognition
[4]
  binding result: no recognition

## MNLPSTKVSWAAVTL [Hcrt1-15 peptide (…)]
[7]
  % competition: > 75%
